Drawing on the NIST ThermoML archive (doi:10.1016/j.jct.2015.07.035), this text covers mass density and refractive index for six compounds.

The conditions of data set [1]: 101.33 kPa, Liquid, Vibrating tube method.
Data set [2] can be described thus: refractive index (Na D-line) (dimensionless). As to conditions: 101.33 kPa, Liquid, Standard Abbe refractometry.

Numbers after ± are expanded uncertainties.

For orientation: mass density means mass per unit of volume. The refractive index is a measure of how strongly the sample bends light.

Consider `c1ccc(COCc2ccccc2)cc1` [dibenzyl ether], for which, in data set [1] (298.2 K), the mass density was found to be 1039.32 ± 1.1 kg/m3. The refractive index in data set [2] (298.2 K) was 1.56019 ± 0.00042.
On to `CC(O)c1ccccc1` (configuration not stated) [1-phenylethanol], for which the mass density in data set [1] (298.2 K) was 1006.48 ± 1.1 kg/m3. Moreover, in data set [2] (298.2 K), the refractive index came to 1.52467 ± 0.00042.
For `OC1CCCCC1` [cyclohexanol], the mass density in data set [1] (303.2 K) is 941.42 ± 1.1 kg/m3. Moreover, the refractive index in data set [2] (303.2 K) amounted to 1.46238 ± 0.00042.
As for `Clc1ccccc1` [chlorobenzene], the mass density in data set [1] (298.2 K) is on record as 1101.08 ± 1.1 kg/m3. Moreover, in data set [2] (298.2 K), the refractive index is 1.52165 ± 0.00042.
Turning to `CC(C)CC(=O)O` [3-methylbutanoic acid], in data set [1] (298.2 K), the mass density amounted to 921.34 ± 1.1 kg/m3. Besides, the refractive index in data set [2] (298.2 K) is listed as 1.40124 ± 0.00042.
`CCCCCCCCCCO` [decan-1-ol]: the mass density in data set [1] (298.2 K) turned out to be 826.41 ± 1 kg/m3. Besides, the refractive index in data set [2] (298.2 K) was 1.43554 ± 0.00042.
